Experiment [1] deals with T1, bovine serum albumin (BSA) (Bos taurus, UniProt P02769).
T1 construct: purchased Sigma-Aldrich Brasil
As to the kind of experiment: Fluorescence quenching of BSA. Format: binding. The settings on record: for quenching of BSA fluorescence emission intensity: 1.0 µM BSA, up to 10.0 µM compound, excitation 280 nm, pH 7.20, 25 °C; for number of binding sites n (BSA): Scatchard equation; for binding constant K (BSA, Scatchard): phosphate buffer pH 7.20, 25 °C; for Stern-Volmer quenching constant Ksv (BSA): λ = 345 nm, 25 °C. As for the experimental part:
Based on fluorescence data for λ = 345 nm at 25 °C, the Stern-Volmer quenching constant (Ksv) and the bimolecular quenching rate constant (kq) were obtained using the classical Stern-Volmer equation (Equation (3)). The value of kq was calculated by the Ksv/τ0 ratio, where τ0 is the average lifetime of the fluorophore in the absence of quencher (τ0 =10 ns for BSA).
The interaction of complexes 1 and 2 with bovine serum albumin (BSA) was studied in phosphate buffer (8.3 mM, pH = 7.20). Stock solution of BSA (0.5 mM) was prepared in phosphate buffer and stored in the dark in the refrigerator for further use. The stock solutions of complexes were freshly prepared by first dissolving the compounds in DMF and then making the dilutions with phosphate buffer (pH = 7.20). The amount of DMF was kept less than 5% (by volume) for each set of experiment and had no effect on any experimental results.
(§1) The binding of the copper(II) complexes to BSA was studied using fluorescence spectra. The emission spectra were recorded in the 295–600 nm range with excitation at 280 nm. The excitation and emission slit widths and scan rates were constantly maintained for all the experiments. BSA solution (1.0 µM) was titrated by successive additions of a stock solution of the complexes (50 mM) using a micropipette. All experiments were performed at 298 K. The synchronous fluorescence spectra of BSA varying the concentration of 1 and 2 were recorded at ∆λ (difference between excitation and emission wavelength) = 15 nm and ∆λ = 60 nm.
If it is assumed that the binding of compounds with BSA occurs at equilibrium, the equilibrium binding constant can be analyzed according to the Scatchard equation [28].

Experiment [2] concerns MRC5 (Human Fetal Lung Fibroblast) cells. Nature of the experiment: MTT cytotoxicity assay, MRC5 fibroblasts. Type of experiment: cell-based. The settings on record: 48 h treatment. As to the method:
The in vitro cytotoxic effects of H2AcMe, H2BzMe and complexes 1 and 2 against wild type p53 U87 and mutant p53 T98 glioblastoma cells and against MRC-5 fibroblasts cells were tested using cisplatin as a positive control. To determine the IC50 (concentration that inhibits 50% of cell survival) values the cytotoxic effects were quantified using the 3-(4,5-dimethyl-2-thioazolyl)-2,5-diphenyl tetrazolium bromide (MTT) colorimetric assay. All tested compounds were cytotoxic against both glioma cell lines in a dose-dependent way. The IC50 values (see Table 1) were found in the micromolar range. Despite their cytotoxic activity, all compounds were less toxic to fibroblasts cells than cisplatin. CuCl2 evoked only mild cytotoxicity in all cell lineages with IC50 higher than 100 µM.
U87 (p53 wild-type glioblastoma multiforme) and T98 (p53 mutant glioblastoma multiforme) malignant human tumor cells and MRC5 (Human Fetal Lung Fibroblast) cells were obtained from the American Type Culture Collection (ATCC, Manassas, VA, USA). Cell lines were grown as monolayer in Dulbecco’s Modified Eagle’s Medium (DMEM, Gibco, Rockville, MD, USA), supplemented with 10% fetal bovine serum (Cultilab, Campinas, São Paulo, Brazil) and antibiotics (50 U/mL penicillin/50 […] streptomycin), in a humidified atmosphere air/CO2 (95%/5%) at 37 °C. Cells 80% confluents were used in all experiments. For all experiments, cells were seeded in 96-well plates, at a density of 1000 cells/well. After 24 h incubation cells were treated.
To determine the IC50 values the cytotoxic effects were quantified using the 3-(4,5-dimethyl-2-thioazolyl)-2,5-diphenyltetrazolium bromide (MTT) colorimetric assay. Briefly, cells were treated with increasing concentrations (10^−12, 10^−11, 10^−10, 10^−9, 10^−8, 10^−7, 10^−6, 10^−5, 10^−4 mol·L^−1) of either cisplatin (positive control) or test compounds (H2AcMe, H2BzMe, 1 and 2). The compounds were previously dissolved in dimethyl sulfoxide (DMSO) and the final concentrations were adjusted in DMEM in such manner that the final DMSO concentration was lower than 0.5%. Following 48 h treatment, MTT reagent was added to each well. Following another 4 h of incubation at 37 °C, DMSO was added to each well to dissolve formazan precipitate and absorbance was measured at 570 nm. Tests using DMSO (0.5% in DMEM) as negative control were carried out in parallel. All tests were performed in quadruplicates with full agreement between the results. Statistical analysis was carried out by the unpaired, one-tailed Student’s t testing using a p value of 0.05. A value of p < 0.05 was considered significant.
On the technique in general: Tetrazolium assays rely on reduction of a dye to a coloured formazan, in cell work by metabolically active cells.

Experiment [3] concerns the target T1, bovine serum albumin (BSA). As to the kind of experiment: Synchronous fluorescence spectra of BSA. Type of experiment: binding. The settings on record: 1.0 µM BSA, up to 10.0 µM compound; for decrease of BSA synchronous fluorescence intensity at Δλ = 60 nm: tryptophan residues; for decrease of BSA synchronous fluorescence intensity at Δλ = 15 nm: tyrosine residues. As for the experimental part: Synchronous fluorescence spectroscopy is a very useful method to study the changes in the microenvironment of tyrosine and tryptophan amino acid residues in BSA [39]. The spectra were measured after and before the addition of test compounds. The synchronous fluorescence of BSA is characteristic of tyrosine residues when the difference between excitation and emission wavelength Δλ value is 15 nm and characteristic of tryptophan residues if Δλ value is 60 nm. […] In both cases, a decrease in emission intensity of BSA with increasing complex concentration was observed. […] In the spectra at Δλ = 60 nm, an important decrease of the BSA fluorescence intensity (~41% for 1 and ~44% for 2) accompanied by a small blue shift of 1nm occurs.
as §1

T1 sequence (P02769 25-607): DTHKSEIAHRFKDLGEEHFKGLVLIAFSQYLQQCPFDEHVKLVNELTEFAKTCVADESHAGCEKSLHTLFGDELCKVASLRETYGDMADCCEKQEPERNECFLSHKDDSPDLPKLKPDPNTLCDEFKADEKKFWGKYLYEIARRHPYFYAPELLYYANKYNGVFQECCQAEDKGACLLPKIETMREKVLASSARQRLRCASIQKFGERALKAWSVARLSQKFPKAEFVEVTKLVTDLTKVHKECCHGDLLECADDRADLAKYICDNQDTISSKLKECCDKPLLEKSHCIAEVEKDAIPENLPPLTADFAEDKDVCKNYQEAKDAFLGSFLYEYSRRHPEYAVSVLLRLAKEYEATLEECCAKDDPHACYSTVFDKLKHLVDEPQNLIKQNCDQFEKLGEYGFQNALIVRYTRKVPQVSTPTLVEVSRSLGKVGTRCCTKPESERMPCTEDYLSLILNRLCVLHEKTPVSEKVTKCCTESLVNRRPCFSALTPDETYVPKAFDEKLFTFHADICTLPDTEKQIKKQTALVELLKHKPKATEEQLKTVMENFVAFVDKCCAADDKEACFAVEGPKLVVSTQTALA

On to `CC(=O)NN=C(C)c1ccccn1.[Cl][Cu][Cl]` [compound 1, [dichloro(2-acetylpyridineacetyl-hydrazone)copper(II)]], for which, in experiment [1], the “quenching of BSA fluorescence emission intensity” value is ~ 35%; the “number of binding sites n (BSA)” value stood at 1.06 ± 0.01; the “binding constant K (BSA, Scatchard)” value is given as “(1.11 ± 0.04) × 10^5 M^−1”; the “Stern-Volmer quenching constant Ksv (BSA)” value is reported as “(0.55 ± 0.01) × 10^5 M^−1”. Further, in experiment [2], the IC50 (in general, the concentration that gives 50% inhibition) turned out to be 22.5 ± 3.13 µM. In experiment [3], the “decrease of BSA synchronous fluorescence intensity at Δλ = 60 nm” value is on record as ~ 41% and the “decrease of BSA synchronous fluorescence intensity at Δλ = 15 nm” value was ~ 16%.
In the case of `CC(=O)NN=C(c1ccccc1)c1ccccn1.[Cl][Cu][Cl]` [compound 2, [dichloro(2-benzoylpyridineacetylhydrazone)copper(II)]], in experiment [1], the “quenching of BSA fluorescence emission intensity” value is ~ 40%; the “number of binding sites n (BSA)” value is listed as 1.06 ± 0.01; the “binding constant K (BSA, Scatchard)” value was “(1.37 ± 0.05) × 10^5 M^−1”; the “Stern-Volmer quenching constant Ksv (BSA)” value is “(0.68 ± 0.01) × 10^5 M^−1”. This compound displayed an IC50 in experiment [2] of 49.4 ± 8.83 µM. In addition, in experiment [3], the “decrease of BSA synchronous fluorescence intensity at Δλ = 60 nm” value is recorded as ~ 44% and the “decrease of BSA synchronous fluorescence intensity at Δλ = 15 nm” value is given as ~ 18%.

For the origin of these results see PMC6270821, “ROS-Mediated Cytotoxic Effect of Copper(II) Hydrazone Complexes against Human Glioma Cells” (Molecules, 2014).
